The record followed here is patent US11759455B2, “Substituted 1H-imidazo[4,5-b]pyridin-2(3H)-ones and their use as GLUN2B receptor modulators” (JANSSEN PHARMACEUTICA NV, priority 2016, dated 2023).

The target in this assay is T1, human GluN1/GluN2B NMDA receptors (Homo sapiens, UniProt Q13224).
T1 construct: expressed in transfected cells
T1 sequence (Q13224 27-1484, other chains not shown): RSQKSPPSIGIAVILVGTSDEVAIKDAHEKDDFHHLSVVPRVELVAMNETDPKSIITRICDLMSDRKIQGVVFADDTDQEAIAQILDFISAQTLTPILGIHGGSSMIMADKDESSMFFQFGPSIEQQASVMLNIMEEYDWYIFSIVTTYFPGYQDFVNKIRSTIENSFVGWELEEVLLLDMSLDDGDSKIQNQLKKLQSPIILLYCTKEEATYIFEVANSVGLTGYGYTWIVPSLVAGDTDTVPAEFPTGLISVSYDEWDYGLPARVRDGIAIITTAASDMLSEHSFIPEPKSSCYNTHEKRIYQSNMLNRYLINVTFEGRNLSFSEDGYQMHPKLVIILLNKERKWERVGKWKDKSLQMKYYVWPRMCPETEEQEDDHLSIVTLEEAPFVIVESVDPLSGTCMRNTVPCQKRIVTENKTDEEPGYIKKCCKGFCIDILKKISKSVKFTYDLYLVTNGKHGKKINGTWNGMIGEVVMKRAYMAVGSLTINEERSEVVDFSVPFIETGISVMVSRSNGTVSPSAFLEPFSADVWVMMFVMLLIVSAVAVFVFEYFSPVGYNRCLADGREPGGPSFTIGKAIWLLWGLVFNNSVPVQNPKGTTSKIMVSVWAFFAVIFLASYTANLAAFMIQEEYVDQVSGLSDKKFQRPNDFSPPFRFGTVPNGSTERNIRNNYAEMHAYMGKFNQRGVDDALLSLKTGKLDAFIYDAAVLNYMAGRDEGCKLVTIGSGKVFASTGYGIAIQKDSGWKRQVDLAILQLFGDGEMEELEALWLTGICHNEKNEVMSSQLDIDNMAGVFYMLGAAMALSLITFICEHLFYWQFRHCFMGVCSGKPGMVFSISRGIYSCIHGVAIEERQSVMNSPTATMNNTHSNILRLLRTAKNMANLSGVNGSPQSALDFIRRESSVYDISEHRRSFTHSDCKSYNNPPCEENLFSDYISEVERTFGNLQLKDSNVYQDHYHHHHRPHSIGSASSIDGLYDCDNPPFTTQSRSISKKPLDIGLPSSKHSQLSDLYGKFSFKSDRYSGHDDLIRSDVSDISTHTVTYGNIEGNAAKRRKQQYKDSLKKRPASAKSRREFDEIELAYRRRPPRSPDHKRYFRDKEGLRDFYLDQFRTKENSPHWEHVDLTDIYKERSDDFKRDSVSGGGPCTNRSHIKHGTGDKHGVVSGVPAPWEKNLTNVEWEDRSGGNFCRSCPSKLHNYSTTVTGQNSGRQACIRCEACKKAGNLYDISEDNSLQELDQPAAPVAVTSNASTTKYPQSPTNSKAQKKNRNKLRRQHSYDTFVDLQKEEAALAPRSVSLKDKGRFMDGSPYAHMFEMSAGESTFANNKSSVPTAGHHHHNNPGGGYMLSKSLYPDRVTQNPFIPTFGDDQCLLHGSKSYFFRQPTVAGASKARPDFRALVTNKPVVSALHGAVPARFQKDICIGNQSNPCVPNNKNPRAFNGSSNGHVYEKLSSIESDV
Description: Cell-based calcium flux (FLIPR) assay on cloned human NR1/NR2B ion channels expressed in mammalian cells (standard and HTS buffer variants).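 Further: stable Tet-On inducible cell line, Ca2+ influx triggered by glutamate at about EC40 plus 10 µM glycine, fluorescent dye read-out over 5 min, normalized to control wells.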 To be noted: standard assay buffer (0.5 mM MgCl2 dye loading; 137 mM NaCl, 4 mM KCl assay buffer), human GluN1/GluN2B cells, read-out: NR2B IC50 (μM) standard assay. (A change in cytosolic calcium serves as a functional read-out for many receptors and channels.)
As to `Cn1c(=O)n(Cc2cccnn2)c2cc(-c3csc(C(F)(F)F)c3)cnc21` [Example 103, 3-Methyl-1-(pyridazin-3-ylmethyl)-6-[5-(trifluoromethyl)-3-thienyl]imidazo[4,5-b]pyridin-2-one], the IC50 (as a rule, the midpoint of a concentration-inhibition curve) was found to be 0.017 µM.
Turning to `Cn1c(=O)n(CC(=O)N2CCC2)c2cc(-c3csc(C(F)(F)F)c3)cnc21` [Example 104, 1-[2-(Azetidin-1-yl)-2-oxo-ethyl]-3-methyl-6-[5-(trifluoromethyl)-3-thienyl]imidazo[4,5-b]pyridin-2-one], the concentration for half-maximal inhibition (IC50) came out at 0.048 µM.
For `Cn1c(=O)n(CC(=O)N2CCC2)c2cc(-c3ccc(C4CC4)s3)cnc21` [Example 105, 1-[2-(Azetidin-1-yl)-2-oxo-ethyl]-6-(5-cyclopropyl-2-thienyl)-3-methyl-imidazo[4,5-b]pyridin-2-one] the value was 0.081 µM.
`Cn1c(=O)n(CC(=O)N2CC(F)C2)c2cc(-c3ccc(C4CC4)s3)cnc21` [Example 106, 6-(5-Cyclopropyl-2-thienyl)-1-[2-(3-fluoroazetidin-1-yl)-2-oxo-ethyl]-3-methyl-imidazo[4,5-b]pyridin-2-one]: the IC50 was determined as 0.039 µM.
For `Cn1c(=O)n(CC(=O)N2CCC2)c2cc(-c3csc(C(F)(F)F)n3)cnc21` [Example 107, 1-[2-(Azetidin-1-yl)-2-oxo-ethyl]-3-methyl-6-[2-(trifluoromethyl)thiazol-4-yl]imidazo[4,5-b]pyridin-2-one] the value was 0.087 µM.
With `CN(C)C(=O)Cn1c(=O)n(C)c2ncc(-c3csc(C(F)(F)F)n3)cc21` [Example 108, N,N-Dimethyl-2-[3-methyl-2-oxo-6-[2-(trifluoromethyl)thiazol-4-yl]imidazo[4,5-b]pyridin-1-yl]acetamide] the figure was 0.047 µM.
With `Cn1c(=O)n(CC(=O)N2CC(F)C2)c2cc(-c3csc(C(F)(F)F)n3)cnc21` [Example 109, 1-[2-(3-Fluoroazetidin-1-yl)-2-oxo-ethyl]-3-methyl-6-[2-(trifluoromethyl)thiazol-4-yl]imidazo[4,5-b]pyridin-2-one] the figure was 0.04 µM.
As to `CN(C)C(=O)Cn1c(=O)n(C)c2ncc(-c3ccc(C4CC4)s3)cc21` [Example 110, 2-[6-(5-Cyclopropyl-2-thienyl)-3-methyl-2-oxo-imidazo[4,5-b]pyridin-1-yl]-N,N-dimethyl-acetamide], the IC50 is 0.04 µM.
Turning to `Cn1c(=O)n(CC(=O)N2CCC2)c2cc(-c3ccc(C(F)(F)C(F)(F)F)s3)cnc21` [Example 111, 1-[2-(Azetidin-1-yl)-2-oxo-ethyl]-3-methyl-6-[5-(1,1,2,2,2-pentafluoroethyl)-2-thienyl]imidazo[4,5-b]pyridin-2-one], the IC50 is 0.037 µM.
With `Cc1ncc(-c2cnc3c(c2)n(CC(=O)N2CCC2)c(=O)n3C)s1` [Example 112, 1-[2-(Azetidin-1-yl)-2-oxo-ethyl]-3-methyl-6-(2-methylthiazol-5-yl)imidazo[4,5-b]pyridin-2-one] the figure was 5.1 µM.
For `Cc1ncc(-c2cnc3c(c2)n(CC(=O)N2CC(F)C2)c(=O)n3C)s1` [Example 113, 1-[2-(3-Fluoroazetidin-1-yl)-2-oxo-ethyl]-3-methyl-6-(2-methylthiazol-5-yl)imidazo[4,5-b]pyridin-2-one] the value was 5.36 µM; for `Cc1ncc(-c2cnc3c(c2)n(CC(=O)N(C)C)c(=O)n3C)s1` [Example 114, N,N-Dimethyl-2-[3-methyl-6-(2-methylthiazol-5-yl)-2-oxo-imidazo[4,5-b]pyridin-1-yl]acetamide], 11.7 µM; for `Cn1c(=O)n(CC(=O)N2CCC2)c2cc(-c3cnc(C(F)(F)F)s3)cnc21` [Example 115, 1-[2-(Azetidin-1-yl)-2-oxo-ethyl]-3-methyl-6-[2-(trifluoromethyl)thiazol-5-yl]imidazo[4,5-b]pyridin-2-one], 0.82 µM.
With `Cn1c(=O)n(CC(=O)N2CC(F)C2)c2cc(-c3cnc(C(F)(F)F)s3)cnc21` [Example 116, 1-[2-(3-Fluoroazetidin-1-yl)-2-oxo-ethyl]-3-methyl-6-[2-(trifluoromethyl)thiazol-5-yl]imidazo[4,5-b]pyridin-2-one], the IC50 is 0.705 µM.
For `Cn1c(=O)n(CC(=O)N2CCC2)c2cc(-c3cc(C(F)F)cs3)cnc21` [Example 117, 1-[2-(Azetidin-1-yl)-2-oxo-ethyl]-6-[4-(difluoromethyl)-2-thienyl]-3-methyl-imidazo[4,5-b]pyridin-2-one] the value was 0.038 µM; for `Cn1c(=O)n(CC(=O)N2CC(F)C2)c2cc(-c3cc(C(F)F)cs3)cnc21` [Example 118, 6-[4-(Difluoromethyl)-2-thienyl]-1-[2-(3-fluoroazetidin-1-yl)-2-oxo-ethyl]-3-methyl-imidazo[4,5-b]pyridin-2-one], 0.02 µM; for `Cc1csc(-c2cnc3[nH]c(=O)n(Cc4cc(C)on4)c3c2)c1` [Example 125, 1-[(5-Methylisoxazol-3-yl)methyl]-6-(4-methyl-2-thienyl)-3H-imidazo[4,5-b]pyridin-2-one], 0.082 µM.
For `Cc1cc(Cn2c(=O)[nH]c3ncc(-c4ccccc4C)cc32)no1` [Example 126, 1-[(5-Methylisoxazol-3-yl)methyl]-6-(o-tolyl)-3H-imidazo[4,5-b]pyridin-2-one] the value was 0.038 µM; for `Cc1csc(-c2cnc3[nH]c(=O)n(Cc4nc(C)no4)c3c2)c1` [Example 127, 1-[(3-Methyl-1,2,4-oxadiazol-5-yl)methyl]-6-(4-methyl-2-thienyl)-3H-imidazo[4,5-b]pyridin-2-one], 0.095 µM.
For `Cn1ccc(Cn2c(=O)[nH]c3ncc(-c4ccc(F)cc4)cc32)n1` [Example 128, 6-(4-Fluorophenyl)-1-[(1-methylpyrazol-3-yl)methyl]-3H-imidazo[4,5-b]pyridin-2-one] the value was 5.16 µM.
With `Cc1cc(-c2cnc3[nH]c(=O)n(Cc4ccn(C)n4)c3c2)ccc1F` [Example 129, 6-(4-Fluoro-3-methyl-phenyl)-1-[(1-methylpyrazol-3-yl)methyl]-3H-imidazo[4,5-b]pyridin-2-one], the IC50 stood at 0.394 µM.
For `Cn1ccc(Cn2c(=O)[nH]c3ncc(-c4ccc(F)c(Cl)c4)cc32)n1` [Example 130, 6-(3-Chloro-4-fluoro-phenyl)-1-[(1-methylpyrazol-3-yl)methyl]-3H-imidazo[4,5-b]pyridin-2-one] the value was 4.73 µM.
Take `Cn1ccc(Cn2c(=O)[nH]c3ncc(-c4ccc(F)c(F)c4)cc32)n1` [Example 131, 6-(3,4-Difluorophenyl)-1-[(1-methylpyrazol-3-yl)methyl]-3H-imidazo[4,5-b]pyridin-2-one]: the IC50 came to 3.56 µM.
With `Cn1ccc(Cn2c(=O)[nH]c3ncc(-c4ccc(F)cc4F)cc32)n1` [Example 132, 6-(2,4-Difluorophenyl)-1-[(1-methylpyrazol-3-yl)methyl]-3H-imidazo[4,5-b]pyridin-2-one] the figure was 6.76 µM; with `CCOC(=O)Cn1c(=O)[nH]c2ncc(-c3cccc(C(F)(F)F)c3)cc21` [Example 134, Ethyl 2-[2-oxo-6-[3-(trifluoromethyl)phenyl]-3H-imidazo[4,5-b]pyridin-1-yl]acetate], 0.035 µM.
With `O=C(O)Cn1c(=O)[nH]c2ncc(-c3cccc(C(F)(F)F)c3)cc21` [Example 135, 2-[2-Oxo-6-[3-(trifluoromethyl)phenyl]-3H-imidazo[4,5-1D]pyridin-1-yl]acetic Acid] the figure was 6 µM.
